According to patent publication US9513294B2, “Megastokes amino-triazolyl-BODIPY compounds and applications to live neuron staining and human serum albumin FA1 drug site probing” (National University of Singapore, priority 2012, dated 2016):

Tests used:
[1] = Absorbance and fluorescence emission spectra (SpectraMax M2); assay type: physicochemical; conditions: for λmax Absorp. (nm) / λmax Emission (nm): MKCA compound library; for λmax Absorp. (nm) / λmax Abs. (nm): absorbance maximum; for λmax Emission (nm) / λmax Em. (nm): fluorescence emission maximum; for λmax Abs. (nm) / λmax Em. (nm): MKAC compound library
Outline: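 Absorbance and emission maxima measured on a SpectraMax M2 spectrophotometer, which also gave quantum yield data; analysis in GraphPrism.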

[2] = Quantum yield measurements versus Acridine Yellow in EtOH; assay type: physicochemical; conditions: for φ (%): quantum yield; for φ (quantum yield): excitation 460 nm
Outline: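 Fluorescence quantum yield is relative to Acridine Yellow in EtOH (Φ 0.47), with excitation at 460 nm. Integrated emission at 510–700 nm was corrected for absorbance at the excitation wavelength and for solvent refractive index.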

## COc1ccc(OC)c(CNC2=[N+]3C(=C(c4ccc(NC(=O)CCl)cc4)c4ccc(-n5cc(CN(C)Cc6ccccc6)nn5)n4[B-]3(F)F)C=C2)c1 [MKCA181-18]
[1]
  λmax Absorp. (nm): 462 nm
  λmax Emission (nm): 563 nm
[2]; MKCA compound library
  φ (%): 21.65%

## CCCCCC(O)c1cn(-c2ccc3n2[B-](F)(F)[N+]2=C(N4CCCC4)C=CC2=C3c2ccc(N)cc2)nn1 (stereo not drawn) [MK215-69]
[1]; MK library, Table 5
  λmax Absorp.: 470 nm
  λmax Emission: 580 nm
[2]; MK library, Table 5
  φ (quantum yield): 0.33%

## Nc1ccc(C2=C3C=CC(NCc4cc(F)cc(F)c4)=[N+]3[B-](F)(F)n3c2ccc3-n2cc(C3CC3)nn2)cc1 [MK412-4]
[1]; MK library, Table 5
  λmax Absorp.: 475 nm
  λmax Emission: 562 nm
[2]; MK library, Table 5
  φ (quantum yield): 0.67%

## Nc1ccc(C2=C3C=CC(N4CCCCC4)=[N+]3[B-](F)(F)n3c2ccc3-n2cc(CC3CCCC3)nn2)cc1 [BDC-7]
[1]; BDC library, Table 2
  λmax Absorp.: 476 nm
  λmax Emission: 573 nm
[2]; BDC library, Table 2
  φ (quantum yield): 0.23%

## CCCc1cn(-c2ccc3n2[B-](F)(F)[N+]2=C(N4CC(C)OC(C)C4)C=CC2=C3c2ccc(NC(=O)CCl)cc2)nn1 (stereo not drawn) [MKCA20-48]
[1]
  λmax Absorp. (nm): 466 nm
  λmax Emission (nm): 569 nm
[2]; MKCA compound library
  φ (%): 4.88%

## COc1ccc(OC)c(CNC2=[N+]3C(=C(c4ccc(N)cc4)c4ccc(-n5cc(CCc6ccccc6)nn5)n4[B-]3(F)F)C=C2)c1 [MK181-19]
[1]; MK library, Table 5
  λmax Absorp.: 474 nm
  λmax Emission: 564 nm
[2]; MK library, Table 5
  φ (quantum yield): 0.85%

## CCCc1cn(-c2ccc3n2[B-](F)(F)[N+]2=C(NCc4ccccc4OCC)C=CC2=C3c2ccc(NC(C)=O)cc2)nn1 [MKAC103-48]
[1]
  λmax Abs. (nm): 466 nm
  λmax Em. (nm): 562 nm
[2]; MKAC compound library
  φ (%): 20.07%

## CC(=O)Nc1ccc(C2=C3C=CC(N4CC(C)OC(C)C4)=[N+]3[B-](F)(F)n3c2ccc3-n2cc(C3CC3)nn2)cc1 (stereo not drawn) [MKAC20-4]
[1]
  λmax Abs. (nm): 466 nm
  λmax Em. (nm): 585 nm
[2]; MKAC compound library
  φ (%): 3.64%

## CCCCCC(O)c1cn(-c2ccc3n2[B-](F)(F)[N+]2=C(N4CCc5ccccc5C4)C=CC2=C3c2ccc(NC(=O)CCl)cc2)nn1 (stereo not drawn) [MKCA66-69]
[1]
  λmax Absorp. (nm): 469 nm
  λmax Emission (nm): 586 nm
[2]; MKCA compound library
  φ (%): 3.38%

## Nc1ccc(C2=C3C=CC(N4CCCCC4)=[N+]3[B-](F)(F)n3c2ccc3-n2cc(CCc3ccccc3)nn2)cc1 [BDC-19]
[1]; BDC library, Table 2
  λmax Absorp.: 476 nm
  λmax Emission: 594 nm
[2]; BDC library, Table 2
  φ (quantum yield): 0.08%

## Nc1ccc(C2=C3C=CC(N4CCCCC4)=[N+]3[B-](F)(F)n3c2ccc3-n2cc(CO)nn2)cc1 [BDC-70]
[1]; BDC library, Table 2
  λmax Absorp.: 474 nm
  λmax Emission: 586 nm
[2]; BDC library, Table 2
  φ (quantum yield): 0.13%

## CCCc1cn(-c2ccc3n2[B-](F)(F)[N+]2=C(NCc4cc(OC)ccc4OC)C=CC2=C3c2ccc(NC(=O)CCl)cc2)nn1 [MKCA181-48]
[1]
  λmax Absorp. (nm): 465 nm
  λmax Emission (nm): 563 nm
[2]; MKCA compound library
  φ (%): 20.00%

## CCCCCC(O)c1cn(-c2ccc3n2[B-](F)(F)[N+]2=C(NCc4cc(F)cc(F)c4)C=CC2=C3c2ccc(N)cc2)nn1 (stereo not drawn) [MK412-69]
[1]; MK library, Table 5
  λmax Absorp.: 476 nm
  λmax Emission: 563 nm
[2]; MK library, Table 5
  φ (quantum yield): 1.98%

## Cc1ccccc1CNC1=[N+]2C(=C(c3ccc(NC(=O)CCl)cc3)c3ccc(-n4cc(C5CCCC5)nn4)n3[B-]2(F)F)C=C1 [MKCA101-5]
[1]
  λmax Absorp. (nm): 466 nm
  λmax Emission (nm): 563 nm
[2]; MKCA compound library
  φ (%): 31.53%

## CCCCCCCc1cn(-c2ccc3n2[B-](F)(F)[N+]2=C(N4CCCCC4)C=CC2=C3c2ccc(N)cc2)nn1 [BDC-50]
[1]; BDC library, Table 2
  λmax Absorp.: 475 nm
  λmax Emission: 577 nm
[2]; BDC library, Table 2
  φ (quantum yield): 0.13%

## Nc1ccc(C2=C3C=CC(N4CCc5ccccc5C4)=[N+]3[B-](F)(F)n3c2ccc3-n2cc(C3CC3)nn2)cc1 [MK66-4]
[1]; MK library, Table 5
  λmax Absorp.: 479 nm
  λmax Emission: 587 nm
[2]; MK library, Table 5
  φ (quantum yield): 0.12%

## CCCc1cn(-c2ccc3n2[B-](F)(F)[N+]2=C(NCc4ccccc4C)C=CC2=C3c2ccc(NC(=O)CCl)cc2)nn1 [MKCA101-48]
[1]
  λmax Absorp. (nm): 465 nm
  λmax Emission (nm): 562 nm
[2]; MKCA compound library
  φ (%): 28.94%

## CCCCCC(O)c1cn(-c2ccc3n2[B-](F)(F)[N+]2=C(N4CCc5ccccc5C4)C=CC2=C3c2ccc(NC(C)=O)cc2)nn1 (stereo not drawn) [MKAC66-69]
[1]
  λmax Abs. (nm): 469 nm
  λmax Em. (nm): 579 nm
[2]; MKAC compound library
  φ (%): 1.88%

## COc1ccc2cc(-c3cn(-c4ccc5n4[B-](F)(F)[N+]4=C(N6CCCCC6)C=CC4=C5c4ccc(NC(C)=O)cc4)nn3)ccc2c1 [BDCAC-22]
[1]; BDCAC library, Table 3
  λmax Absorp.: 465 nm
  λmax Emission: 585 nm
[2]; BDCAC library, Table 3
  φ (quantum yield): 1.2%

## CC(=O)Nc1ccc(C2=C3C=CC(N4CCCCC4)=[N+]3[B-](F)(F)n3c2ccc3-n2cc(C3CCCC3)nn2)cc1 [BDCAC-5]
[1]; BDCAC library, Table 3
  λmax Absorp.: 469 nm
  λmax Emission: 588 nm
[2]; BDCAC library, Table 3
  φ (quantum yield): 1.3%

## CC(=O)Nc1ccc(C2=C3C=CC(N4CCCC4)=[N+]3[B-](F)(F)n3c2ccc3-n2cc(CCc3ccccc3)nn2)cc1 [MKAC215-19]
[1]
  λmax Abs. (nm): 462 nm
  λmax Em. (nm): 567 nm
[2]; MKAC compound library
  φ (%): 3.41%

## CC(=O)Nc1ccc(C2=C3C=CC(N4CCc5ccccc5C4)=[N+]3[B-](F)(F)n3c2ccc3-n2cc(C3CC3)nn2)cc1 [MKAC66-4]
[1]
  λmax Abs. (nm): 469 nm
  λmax Em. (nm): 580 nm
[2]; MKAC compound library
  φ (%): 2.56%

## Cc1ccccc1CNC1=[N+]2C(=C(c3ccc(N)cc3)c3ccc(-n4cc(CC(C)C)nn4)n3[B-]2(F)F)C=C1 [MK101-43]
[1]; MK library, Table 5
  λmax Absorp.: 474 nm
  λmax Emission: 562 nm
[2]; MK library, Table 5
  φ (quantum yield): 2.36%

## CC(C)Cc1cn(-c2ccc3n2[B-](F)(F)[N+]2=C(N(C)Cc4ccccc4)C=CC2=C3c2ccc(N)cc2)nn1 [MK195-43]
[1]; MK library, Table 5
  λmax Absorp.: 475 nm
  λmax Emission: 571 nm
[2]; MK library, Table 5
  φ (quantum yield): 0.41%

## CCCc1cn(-c2ccc3n2[B-](F)(F)[N+]2=C(NCc4ccccc4C)C=CC2=C3c2ccc(NC(C)=O)cc2)nn1 [MKAC101-48]
[1]
  λmax Abs. (nm): 465 nm
  λmax Em. (nm): 562 nm
[2]; MKAC compound library
  φ (%): 17.25%

## CN(Cc1ccccc1)C1=[N+]2C(=C(c3ccc(N)cc3)c3ccc(-n4cc(CC5CCCCC5)nn4)n3[B-]2(F)F)C=C1 [MK195-8]
[1]; MK library, Table 5
  λmax Absorp.: 476 nm
  λmax Emission: 579 nm
[2]; MK library, Table 5
  φ (quantum yield): 0.36%

## CCCc1cn(-c2ccc3n2[B-](F)(F)[N+]2=C(N4CCCCC4)C=CC2=C3c2ccc(NC(C)=O)cc2)nn1 [BDCAC-48]
[1]; BDCAC library, Table 3
  λmax Absorp.: 467 nm
  λmax Emission: 576 nm
[2]; BDCAC library, Table 3
  φ (quantum yield): 1.6%

## CC(C)Cc1cn(-c2ccc3n2[B-](F)(F)[N+]2=C(NCc4cc(F)cc(F)c4)C=CC2=C3c2ccc(NC(=O)CCl)cc2)nn1 [MKCA412-43]
[1]
  λmax Absorp. (nm): 468 nm
  λmax Emission (nm): 563 nm
[2]; MKCA compound library
  φ (%): 37.83%

## CCCC(C)c1cn(-c2ccc3n2[B-](F)(F)[N+]2=C(NCc4ccccc4OCC)C=CC2=C3c2ccc(NC(C)=O)cc2)nn1 (stereo not drawn) [MKAC103-3]
[1]
  λmax Abs. (nm): 465 nm
  λmax Em. (nm): 561 nm
[2]; MKAC compound library
  φ (%): 23.42%

## CC(=O)Nc1ccc(C2=C3C=CC(N(C)Cc4ccccc4)=[N+]3[B-](F)(F)n3c2ccc3-n2cc(CC3CCCCC3)nn2)cc1 [MKAC195-8]
[1]
  λmax Abs. (nm): 466 nm
  λmax Em. (nm): 577 nm
[2]; MKAC compound library
  φ (%): 3.65%

## CCCCCC(O)c1cn(-c2ccc3n2[B-](F)(F)[N+]2=C(NCc4cc(OC)ccc4OC)C=CC2=C3c2ccc(N)cc2)nn1 (stereo not drawn) [MK181-69]
[1]; MK library, Table 5
  λmax Absorp.: 473 nm
  λmax Emission: 563 nm
[2]; MK library, Table 5
  φ (quantum yield): 0.86%
